Test results published in US8586550B2, “Thiazole derivatives as SGLT2 inhibitors and pharmaceutical composition comprising same” (Green Cross Corporation, priority 2010, dated 2013).
pIC50: −log10 of the molar value.

The compounds below were run against T1, Human SGLT2 (hSGLT2) (Homo sapiens, UniProt P31639) (assay: Sodium-dependent glucose transport (14C-AMG uptake) assay in CHO cells stably expressing hSGLT2). Settings: CHO cells expressing hSGLT2, 14C-AMG uptake, 37° C. for 2 h; single determinations; read-out: hSGLT2 Inhibitory Activity IC50.
T1 construct: expressed in transfected cells
T1 sequence (P31639 1-672): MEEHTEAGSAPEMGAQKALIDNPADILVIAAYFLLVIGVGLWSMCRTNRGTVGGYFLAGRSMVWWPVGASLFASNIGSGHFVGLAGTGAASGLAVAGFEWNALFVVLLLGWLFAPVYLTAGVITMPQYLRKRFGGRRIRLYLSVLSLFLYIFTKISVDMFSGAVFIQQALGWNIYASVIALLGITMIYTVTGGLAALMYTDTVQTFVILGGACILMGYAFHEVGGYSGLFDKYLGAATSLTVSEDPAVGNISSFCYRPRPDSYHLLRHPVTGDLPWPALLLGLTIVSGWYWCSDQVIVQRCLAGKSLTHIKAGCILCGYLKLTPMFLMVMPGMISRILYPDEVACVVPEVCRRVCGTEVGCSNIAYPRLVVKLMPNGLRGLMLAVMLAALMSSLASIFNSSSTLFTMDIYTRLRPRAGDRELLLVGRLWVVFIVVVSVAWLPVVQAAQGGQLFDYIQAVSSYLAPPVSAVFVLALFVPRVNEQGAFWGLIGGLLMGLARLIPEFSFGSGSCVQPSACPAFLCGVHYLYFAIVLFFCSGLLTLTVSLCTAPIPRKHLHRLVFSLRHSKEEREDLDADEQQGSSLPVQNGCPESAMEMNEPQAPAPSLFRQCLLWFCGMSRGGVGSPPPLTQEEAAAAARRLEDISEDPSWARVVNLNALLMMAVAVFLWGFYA
Type: cell-based
Procedure, shortened: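 Uptake of 14C-α-methyl-D-glucopyranoside (8 μM labeled, 1 mM unlabeled, NaCl buffer pH 7.4) measured over 2 h at 37 °C with inhibitor in hSGLT2-transfected CHO cells after 10 min choline-buffer pretreatment. Radioactivity by liquid scintillation; IC50 from nonlinear regression.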

Compound | pIC50
OC[C@H]1O[C@@H](c2ccc(Cl)c(C3(c4ncc(-c5cccs5)s4)CC3)c2)[C@H](O)[C@@H](O)[C@@H]1O [Example 29, (2S,3R,4R,5S,6R)-2-(4-Chloro-3-(1-(5-(thiophen-2-yl)thiazol-2-yl)cyclopropyl)phenyl)-6-(hydroxymethyl)tetrahydro-2H-pyran-3,4,5-triol] | 7.41
Cc1cnc(Cc2cn([C@@H]3O[C@H](CO)[C@@H](O)[C@H](O)[C@H]3O)c3ccccc23)s1 [Example 132, (2R,3S,4S,5R,6R)-2-(Hydroxymethyl)-6-(3-((5-methylthiazol-2-yl)methyl)-1H-indol-1-yl)tetrahydro-2H-pyran-3,4,5-triol] | 6.79
OC[C@H]1O[C@@H](c2ccc(C3CC3)c(Cc3ncc(-c4ccco4)s3)c2)[C@H](O)[C@@H](O)[C@@H]1O [Example 110, (2S,3R,4R,5S,6R)-2-(4-Cyclopropyl-3-((5-(furan-2-yl)thiazol-2-yl)methyl)phenyl)-6-(hydroxymethyl)-tetrahydro-2H-pyran-3,4,5-triol] | 7.26
Cc1ccc(-c2cnc(Cc3cc([C@@H]4O[C@H](CO)[C@@H](O)[C@H](O)[C@H]4O)ccc3C)s2)cc1 [Example 36, (2R,3S,4R,5R,6S)-2-(Hydroxymethyl)-6-(4-methyl-3-((5-p-tolylthiazol-2-yl)methyl)phenyl)tetrahydro-2H-pyran-3,4,5-triol] | 7.67
OC[C@H]1O[C@@H](c2cc(Cc3ncc(-c4ccccc4)s3)c(O)c3ccccc23)[C@H](O)[C@@H](O)[C@@H]1O [Example 125, (2S,3R,4R,5S,6R)-2-(4-Hydroxy-3-((5-phenylthiazol-2-yl)methyl)naphthalen-1-yl)-6-(hydroxymethyl)-tetrahydro-2H-pyran-3,4,5-triol] | 7.51
OC[C@H]1O[C@@H](c2ccc(Cl)c(C3(c4ncc(-c5ccoc5)s4)CC3)c2)[C@H](O)[C@@H](O)[C@@H]1O [Example 28, (2S,3R,4R,5S,6R)-2-(4-Chloro-3-(1-(5-(furan-3-yl)thiazol-2-yl)cyclopropyl)phenyl)-6-(hydroxymethyl)tetrahydro-2H-pyran-3,4,5-triol] | 6.96
CCCSc1cnc(Cc2cc([C@@H]3O[C@H](CO)[C@@H](O)[C@H](O)[C@H]3O)ccc2Cl)s1 [Example 25, (2S,3R,4R,5S,6R)-2-(4-Chloro-3-((5-(propylthio)thiazol-2-yl)methyl)phenyl)-6-(hydroxymethyl)-tetrahydro-2H-pyran-3,4,5-triol] | 7.25
OC[C@H]1O[C@@H](c2ccc(F)c(Cc3ncc(-c4cccs4)s3)c2)[C@H](O)[C@@H](O)[C@@H]1O [Example 42, (2S,3R,4R,5S,6R)-2-(4-Fluoro-3-((5-(thiophen-2-yl)thiazol-2-yl)methyl)phenyl)-6-(hydroxymethyl)tetrahydro-2H-pyran-3,4,5-triol] | 7.60
CCCCCc1cnc(Cc2cn([C@@H]3O[C@H](CO)[C@@H](O)[C@H](O)[C@H]3O)c3ccccc23)s1 [Example 136, (2R,3S,4S,5R,6R)-2-(Hydroxymethyl)-6-(3-((5-pentylthiazol-2-yl)methyl)-1H-indol-1-yl)tetrahydro-2H-pyran-3,4,5-triol] | 6.68
OC[C@H]1O[C@@H](c2ccc(Cl)c(Cc3ncc(C4CCCCC4)s3)c2)[C@H](O)[C@@H](O)[C@@H]1O [Example 20, (2S,3R,4R,5S,6R)-2-(4-Chloro-3-((5-cyclohexylthiazol-2-yl)methyl)phenyl)-6-(hydroxymethyl)-tetrahydro-2H-pyran-3,4,5-triol] | 7.60
OC[C@H]1O[C@@H](c2ccc(Cl)c(Cc3ncc(-c4ccc(F)cc4)s3)c2)[C@H](O)[C@@H](O)[C@@H]1O [Example 11, (2S,3R,4R,5S,6R)-2-(4-Chloro-3-((5-(4-fluorophenyl)thiazol-2-yl)methyl)phenyl)-6-(hydroxymethyl)-tetrahydro-2H-pyran-3,4,5-triol] | 7.67

These reach a higher pIC50. Values come first.

pIC50 | Compound
7.75 | OC[C@H]1O[C@@H](c2ccc(Cl)c(Cc3cnc(-c4cscn4)s3)c2)[C@H](O)[C@@H](O)[C@@H]1O [Example 193, (2S,3R,4R,5S,6R)-2-(3-(2,4′-Bithiazol-5-ylmethyl)-4-chlorophenyl)-6-(hydroxymethyl)tetrahydro-2H-pyran-3,4,5-triol]
8.01 | OC[C@H]1O[C@@H](c2ccc(C(F)(F)F)c(Cc3ncc(-c4ccco4)s3)c2)[C@H](O)[C@@H](O)[C@@H]1O [Example 4, (2S,3R,4R,5S,6R)-2-(3-((5-(Furan-2-yl)thiazol-2-yl)methyl)-4-(trifluoromethyl)phenyl)-6-(hydroxymethyl)-tetrahydro-2H-pyran-3,4,5-triol]
8.80 | (2S,3R,4R,5S,6R)-2-(4-Chloro-3-((4-phenylthiazol-2-yl)methyl)phenyl)-6-(hydroxymethyl)tetrahydro-2H-pyran-3,4,5-triol [Example 71]
7.84 | OC[C@H]1O[C@@H](c2cc(Cc3ncc(-c4ccco4)s3)cc3ccccc23)[C@H](O)[C@@H](O)[C@@H]1O [Example 93, (2S,3R,4R,5S,6R)-2-(3-((5-(Furan-2-yl)thiazol-2-yl)methyl)naphthalen-1-yl)-6-(hydroxymethyl)tetrahydro-2H-pyran-3,4,5-triol]
8.42 | Cc1ccc([C@@H]2O[C@H](CO)[C@@H](O)[C@H](O)[C@H]2O)cc1Cc1ncc(-c2cccs2)s1 [Example 32, (2R,3S,4R,5R,6S)-2-(Hydroxymethyl)-6-(4-methyl-3-((5-(thiophen-2-yl)thiazol-2-yl)methyl)phenyl)tetrahydro-2H-pyran-3,4,5-triol]
8.54 | CCOc1cc(Cl)c(Cc2ncc(-c3ccccc3)s2)cc1[C@@H]1O[C@H](CO)[C@@H](O)[C@H](O)[C@H]1O [Example 81, (2S,3R,4R,5S,6R)-2-(4-Chloro-2-ethoxy-5-((5-phenylthiazol-2-yl)methyl)phenyl)-6-(hydroxymethyl)tetrahydro-2H-pyran-3,4,5-triol]
8.49 | OC[C@H]1O[C@@H](c2ccc(Cl)c(Cc3ncc(-c4cccs4)s3)c2)[C@H](O)[C@@H](O)[C@@H]1O [Example 7, (2S,3R,4R,5S,6R)-2-(4-Chloro-3-((5-(thiophen-2-yl)thiazol-2-yl)methyl)phenyl)-6-(hydroxymethyl)tetrahydro-2H-pyran-3,4,5-triol]
8.35 | OC[C@H]1O[C@@H](c2ccc(Cl)c(Cc3cnc(-c4ccoc4)s3)c2)[C@H](O)[C@@H](O)[C@@H]1O [Example 186, (2S,3R,4R,5S,6R)-2-(4-Chloro-3-((2-(furan-3-yl)thiazol-5-yl)methyl)phenyl)-6-(hydroxymethyl)tetrahydro-2H-pyran-3,4,5-triol]
8.91 | C=CCOc1cc(Cl)c(Cc2ncc(-c3ccco3)s2)cc1[C@@H]1O[C@H](CO)[C@@H](O)[C@H](O)[C@H]1O [Example 83, (2S,3R,4R,5S,6R)-2-(2-(Allyloxy)-4-chloro-5-((5-(furan-2-yl)thiazol-2-yl)methyl)phenyl)-6-(hydroxymethyl)tetrahydro-2H-pyran-3,4,5-triol]
9.03 | C=CCOc1cc(Cl)c(Cc2ncc(-c3ccsc3)s2)cc1[C@@H]1O[C@H](CO)[C@@H](O)[C@H](O)[C@H]1O [Example 86, (2S,3R,4R,5S,6R)-2-(2-(Allyloxy)-4-chloro-5-((5-(thiophen-3-yl)thiazol-2-yl)methyl)phenyl)-6-(hydroxymethyl)tetrahydro-2H-pyran-3,4,5-triol]
8.13 | COc1cc(Cl)c(Cc2ncc(-c3ccoc3)s2)cc1[C@@H]1O[C@H](CO)[C@@H](O)[C@H](O)[C@H]1O [Example 70, (2S,3R,4R,5S,6R)-2-(4-Chloro-5-((5-(furan-3-yl)thiazol-2-yl)methyl)-2-methoxyphenyl)-6-(hydroxymethyl)tetrahydro-2H-pyran-3,4,5-triol]
7.72 | CCCc1cnc(Cc2cc([C@@H]3O[C@H](CO)C(O)[C@H](O)[C@H]3O)c3ccccc3c2OC)s1 (stereo in doubt) [Example 99, (2R,3R,4R,5R,6S)-2-(Hydroxymethyl)-6-(4-methoxy-3-((5-propylthiazol-2-yl)methyl)naphthalen-1-yl)-tetrahydro-2H-pyran-3,4,5-triol]
